Results reported in PubChem BioAssay (NCI).
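Cultured in 96-well plates, cells were exposed to test compound for 48 hours across five concentrations. At the GI50, growth is halved. At the TGI there is no net growth.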

Experiments:
Assay in all cases: growth of human tumour cells (NCI), 48 h
786-0 renal = tested on: 786-0 renal
A498 renal = tested on: A498 renal
A549 NSCLC = tested on: A549 NSCLC
ACHN renal = tested on: ACHN renal
BT-549 breast = tested on: BT-549 breast
CAKI-1 renal = tested on: CAKI-1 renal
COLO 205 colon = tested on: COLO 205 colon
DU-145 prostate = tested on: DU-145 prostate
EKVX NSCLC = tested on: EKVX NSCLC
HCC-2998 colon = tested on: HCC-2998 colon
HCT-116 colon = tested on: HCT-116 colon
HCT-15 colon = tested on: HCT-15 colon
HL-60(TB) leukemia = tested on: HL-60(TB) leukemia
HOP-62 NSCLC = tested on: HOP-62 NSCLC
HOP-92 NSCLC = tested on: HOP-92 NSCLC
HS 578T breast = tested on: HS 578T breast
HT29 colon = tested on: HT29 colon
IGROV1 ovarian = tested on: IGROV1 ovarian
K-562 leukemia = tested on: K-562 leukemia
KM12 colon = tested on: KM12 colon
LOX IMVI melanoma = tested on: LOX IMVI melanoma
M14 melanoma = tested on: M14 melanoma
MALME-3M melanoma = tested on: MALME-3M melanoma
MCF7 breast = tested on: MCF7 breast
MDA-MB-231 breast = tested on: MDA-MB-231 breast
MDA-MB-435 = tested on: MDA-MB-435
NCI-H226 lung = tested on: NCI-H226 lung
NCI-H23 lung = tested on: NCI-H23 lung
NCI-H460 lung = tested on: NCI-H460 lung
NCI-H522 lung = tested on: NCI-H522 lung
NCI/ADR-RES ovarian = tested on: NCI/ADR-RES ovarian
OVCAR-4 ovarian = tested on: OVCAR-4 ovarian
OVCAR-5 ovarian = tested on: OVCAR-5 ovarian
OVCAR-8 ovarian = tested on: OVCAR-8 ovarian
PC-3 prostate = tested on: PC-3 prostate
RXF 393 renal = tested on: RXF 393 renal
SF-268 CNS = tested on: SF-268 CNS
SF-295 CNS = tested on: SF-295 CNS
SF-539 CNS = tested on: SF-539 CNS
SK-MEL-2 melanoma = tested on: SK-MEL-2 melanoma
SK-MEL-28 melanoma = tested on: SK-MEL-28 melanoma
SK-MEL-5 melanoma = tested on: SK-MEL-5 melanoma
SK-OV-3 ovarian = tested on: SK-OV-3 ovarian
SN12C renal = tested on: SN12C renal
SNB-19 CNS = tested on: SNB-19 CNS
SNB-75 CNS = tested on: SNB-75 CNS
SR leukemia = tested on: SR leukemia
SW-620 colon = tested on: SW-620 colon
T-47D breast = tested on: T-47D breast
TK-10 renal = tested on: TK-10 renal
U251 CNS = tested on: U251 CNS
UACC-257 melanoma = tested on: UACC-257 melanoma
UACC-62 melanoma = tested on: UACC-62 melanoma
UO-31 renal = tested on: UO-31 renal

## COc1cc2c(cc1OC)C(Sc1ccc(C)cc1)c1c(nc(N)c(C#N)c1N)O2 (stereo not drawn)
786-0 renal
  GI50: 1.42 µM
  TGI: 2.79 µM
A498 renal
  GI50: 1.38 µM
  TGI: 2.67 µM
A549 NSCLC
  GI50: 1.73 µM
  TGI: 3.27 µM
ACHN renal
  GI50: 1.51 µM
  TGI: 2.86 µM
BT-549 breast
  GI50: 1.22 µM
  TGI: 2.49 µM
CAKI-1 renal
  GI50: 1.05 µM
  TGI: 2.25 µM
COLO 205 colon
  GI50: 1.49 µM
  TGI: 2.87 µM
DU-145 prostate
  GI50: 1.68 µM
  TGI: 3.05 µM
EKVX NSCLC
  GI50: 1.69 µM
  TGI: 3.13 µM
HCC-2998 colon
  GI50: 1.58 µM
  TGI: 3.12 µM
HCT-116 colon
  GI50: 1.51 µM
  TGI: 3.03 µM
HCT-15 colon
  GI50: 1 µM
  TGI: 2.43 µM
HL-60(TB) leukemia
  GI50: 0.431 µM
  TGI: 4.05 µM
HOP-62 NSCLC
  GI50: 1.8 µM
  TGI: 3.24 µM
HOP-92 NSCLC
  GI50: 1.51 µM
  TGI: 2.93 µM
HS 578T breast
  GI50: 1.97 µM
  TGI: 4.87 µM
HT29 colon
  GI50: 1.77 µM
  TGI: 3.43 µM
IGROV1 ovarian
  GI50: 0.715 µM
  TGI: 2.04 µM
K-562 leukemia
  GI50: 0.558 µM
  TGI: > 100 µM
KM12 colon
  GI50: 1.63 µM
  TGI: 3.01 µM
LOX IMVI melanoma
  GI50: 1.05 µM
  TGI: 2.42 µM
M14 melanoma
  GI50: 1.77 µM
  TGI: 3.29 µM
MALME-3M melanoma
  GI50: 1.74 µM
  TGI: 3.24 µM
MCF7 breast
  GI50: 0.742 µM
  TGI: 2.27 µM
MDA-MB-231 breast
  GI50: 1.65 µM
  TGI: 3.13 µM
MDA-MB-435
  GI50: 1.58 µM
  TGI: 3.01 µM
NCI-H226 lung
  GI50: 1.9 µM
  TGI: 3.99 µM
NCI-H23 lung
  GI50: 1.59 µM
  TGI: 3.1 µM
NCI-H460 lung
  GI50: 1.76 µM
  TGI: 3.36 µM
NCI-H522 lung
  GI50: 1.62 µM
  TGI: 3.07 µM
NCI/ADR-RES ovarian
  GI50: 1.67 µM
  TGI: 3.37 µM
OVCAR-4 ovarian
  GI50: 1.66 µM
  TGI: 3.07 µM
OVCAR-5 ovarian
  GI50: 1.81 µM
  TGI: 3.31 µM
OVCAR-8 ovarian
  GI50: 1.55 µM
  TGI: 2.91 µM
PC-3 prostate
  GI50: 1.51 µM
  TGI: 2.93 µM
RXF 393 renal
  GI50: 1.15 µM
  TGI: 2.42 µM
SF-268 CNS
  GI50: 1.56 µM
  TGI: 3.08 µM
SF-295 CNS
  GI50: 1.6 µM
  TGI: 3.05 µM
SF-539 CNS
  GI50: 1.57 µM
  TGI: 2.93 µM
SK-MEL-2 melanoma
  GI50: 1.59 µM
  TGI: 2.99 µM
SK-MEL-28 melanoma
  GI50: 1.67 µM
  TGI: 3.06 µM
SK-MEL-5 melanoma
  GI50: 1.78 µM
  TGI: 3.22 µM
SK-OV-3 ovarian
  GI50: 1.91 µM
  TGI: 3.35 µM
SN12C renal
  GI50: 1.49 µM
  TGI: 2.86 µM
SNB-19 CNS
  GI50: 1.46 µM
  TGI: 2.84 µM
SNB-75 CNS
  GI50: 1.22 µM
  TGI: 2.47 µM
SR leukemia
  GI50: 0.291 µM
  TGI: > 100 µM
SW-620 colon
  GI50: 1.24 µM
  TGI: 2.74 µM
T-47D breast
  GI50: 1.22 µM
  TGI: 3.56 µM
TK-10 renal
  GI50: 1.2 µM
  TGI: 2.47 µM
U251 CNS
  GI50: 1.36 µM
  TGI: 2.75 µM
UACC-257 melanoma
  GI50: 1.63 µM
  TGI: 3.07 µM
UACC-62 melanoma
  GI50: 1.74 µM
  TGI: 3.22 µM
UO-31 renal
  GI50: 1.07 µM
  TGI: 2.25 µM
